The test concerns the target SOS1/KRAS WT (Homo sapiens (Human), UniProt Q07889). Briefly: SOS1/KRAS WT HTRF binding assay (FRET-based protein-protein interaction). The settings on record: inhibition of His6-SOS1 (aa564-1049, 40 nM) binding to GST-KRAS-WT (aa1-188, 40 nM); at least two independent replicates; read-out: SOS1/KRAS WT HTRF Binding assay pIC50 (converted). Put shortly: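 Time-resolved FRET at 665 nm, read 4 hr after adding anti-GST-Eu(K) (4 nM) and anti-6His-XL665 (20 nM), tracked SOS1(aa564-1049)–KRAS WT(aa1-188) association. Both proteins were at 40 nM, pre-incubated 60 min at room temperature with compound. Max/min signals came from 0.05% DMSO and 10 μM reference, with four-parameter logistic IC50.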
(In general: In TR-FRET formats the signal depends on donor and acceptor labels being close together.)
Chain of SOS1/KRAS WT (Q07889 564-1049): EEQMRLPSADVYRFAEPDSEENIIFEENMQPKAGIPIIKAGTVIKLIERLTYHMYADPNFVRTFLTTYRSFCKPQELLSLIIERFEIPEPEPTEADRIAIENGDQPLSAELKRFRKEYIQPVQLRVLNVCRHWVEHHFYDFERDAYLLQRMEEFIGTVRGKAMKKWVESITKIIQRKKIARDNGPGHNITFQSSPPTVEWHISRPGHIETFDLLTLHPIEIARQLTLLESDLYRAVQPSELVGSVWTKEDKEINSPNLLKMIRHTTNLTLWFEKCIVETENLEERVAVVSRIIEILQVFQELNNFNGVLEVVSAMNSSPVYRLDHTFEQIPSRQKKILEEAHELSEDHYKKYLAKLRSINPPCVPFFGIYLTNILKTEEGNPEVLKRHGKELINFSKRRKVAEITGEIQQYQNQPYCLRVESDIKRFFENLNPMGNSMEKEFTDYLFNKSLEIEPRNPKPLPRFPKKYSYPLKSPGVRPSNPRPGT
As for `Cc1nnc(N[C@H](C)c2cccc(C(F)(F)CO)c2F)c2cc3c(cc12)C(C)(C)C(=O)N3C1CC1` [Compound 123, 1-cyclopropyl-3,3,5-trimethyl-8-[[(1R)-1-[3-(1,1-difluoro-2-hydroxy-ethyl)-2-fluoro-phenyl]ethyl]amino]pyrrolo[2,3-g]phthalazin-2-one], the IC50 was 0.00871 µM.
For `CCN1C(=O)C(C)(OC)c2cc3c(C)nnc(N[C@H](C)c4cccc(C(F)(F)C(C)(C)O)c4C)c3cc21` (stereo partly drawn) [Compound 169, 1-ethyl-3-methoxy-3,5-dimethyl-8-[[(1R)-1-[3-(1,1-difluoro-2-hydroxy-2-methyl-propyl)-2-methyl-phenyl]ethyl]amino]pyrrolo[2,3-g]phthalazin-2-one] the value was 0.0102 µM; for `Cc1c(C#N)cccc1[C@@H](C)Nc1nnc(C)c2cc3c(cc12)n(C1CC1)c(=O)n3C` [Compound 47, 2-methyl-3-[(1R)-1-[(3-cyclopropyl-1,8-dimethyl-2-oxo-imidazo[4,5-g]phthalazin-5-yl)amino]ethyl]benzonitrile], 0.0138 µM; for `CCOC1(C)C(=O)N(C)c2cc3c(C)nnc(N[C@H](C)c4cccc(C(F)(F)C(C)(C)O)c4C)c3cc21` (stereo partly drawn) [Compound 185, 3-ethoxy-1,3,8-trimethyl-5-[[(1R)-1-[3-(1,1-difluoro-2-hydroxy-2-methyl-propyl)-2-methyl-phenyl]ethyl]amino]pyrrolo[3,2-g]phthalazin-2-one], 0.0245 µM.
The same measure for `Cc1c([C@@H](C)Nc2nnc(C)c3cc4c(cc23)n(C2(C)CC2)c(=O)n4C)cccc1C(F)(F)CO` [Compound 76, 1,8-dimethyl-3-(1-methylcyclopropyl)-5-[[(1R)-1-[3-(1,1-difluoro-2-hydroxy-ethyl)-2-methyl-phenyl]ethyl]amino]imidazo[4,5-g]phthalazin-2-one]: 0.00603 µM; for `Cc1nnc(N[C@H](C)c2cccc(C(F)(F)CO)c2F)c2cc3c(cc12)N(C)C(=O)C31CCOCC1` [Compound 116, 1,8-dimethyl-5-[[(1R)-1-[3-(1,1-difluoro-2-hydroxy-ethyl)-2-fluoro-phenyl]ethyl]amino]spiro[pyrrolo [3,2-g]phthalazine-3,4′-tetrahydropyran]-2-one]: 0.00661 µM.
The same measure for `Cc1c([C@@H](C)Nc2nnc(C)c3cc4c(cc23)n(C)c(=O)n4C)cccc1C(F)(F)F` [Compound 54, 1,3,8-trimethyl-5-[[(1R)-1-[2-methyl-3-(trifluoromethyl)phenyl]ethyl]amino] imidazo[4,5-g]phthalazin-2-one]: 0.00617 µM; for `CCOC1(C)C(=O)N(C)c2cc3c(C)nnc(N[C@H](C)c4cccc(C(F)(F)C(C)(C)O)c4F)c3cc21` (stereo partly drawn) [Compound 190, 3-ethoxy-1,3,8-trimethyl-5-[[(1R)-1-[3-(1,1-difluoro-2-hydroxy-2-methyl-propyl)-2-fluoro-phenyl]ethyl]amino]pyrrolo[3,2-g]phthalazin-2-one]: 0.0166 µM.
Turning to `COC1(C)C(=O)N(C)c2cc3c(N[C@H](C)c4cc(F)cc(C(F)(F)CO)c4F)nnc(C)c3cc21` (stereo partly drawn) [Compound 141, 3-methoxy-1,3,5-trimethyl-8-[[(1R)-1-[3-(1,1-difluoro-2-hydroxy-ethyl)-2,5-difluoro-phenyl]ethyl]amino]pyrrolo[2,3-g]phthalazin-2-one], the IC50 was 0.02 µM.
For `Cc1nnc(N[C@H](C)c2cccc(C(F)(F)C(C)(C)O)c2F)c2cc3c(cc12)C1(CCOCC1)C(=O)N3C` [Compound 73, 1,5-dimethyl-8-[[(1R)-1-[3-(1,1-difluoro-2-hydroxy-2-methyl-propyl)-2-fluoro-phenyl]ethyl]amino]spiro[pyrrolo [2,3-g]phthalazine-3,4′-tetrahydropyran]-2-one] the value was 0.00692 µM; for `Cc1c([C@@H](C)Nc2nnc(C)c3cc4c(cc23)C2(CCOCC2)C(=O)N4C)cccc1C(F)(F)CO` [Compound 129, 1,8-dimethyl-5-[[(1R)-1-[3-(1,1-difluoro-2-hydroxy-ethyl)-2-methyl-phenyl]ethyl]amino]spiro[pyrrolo [3,2-g]phthalazine-3,4′-tetrahydropyran]-2-one], 0.00661 µM; for `Cc1nnc(N[C@H](C)c2cccc(C(F)(F)F)c2)c2cc3c(cc12)n(C)c(=O)n3CC(F)F` [Compound 50, 3-(2,2-difluoroethyl)-1,8-dimethyl-5-[[(1R)-1-[3-(trifluoromethyl)phenyl]ethyl]amino] imidazo[4,5-g]phthalazin-2-one], 0.0132 µM.
For the compound `Cc1nnc(N[C@H](C)c2cccc(C(F)(F)C(C)(C)O)c2F)c2cc3c(cc12)n(C)c(=O)n3C1CC1` [Compound 33, 3-cyclopropyl-1,8-dimethyl-5-[[(1R)-1-[3-(1,1-difluoro-2-hydroxy-2-methyl-propyl)-2-fluoro-phenyl]ethyl]amino]imidazo[4,5-g]phthalazin-2-one], the IC50 was 0.00977 µM.
The same measure for `Cc1nnc(N[C@H](C)c2cccc(C(F)(F)F)c2)c2cc3c(cc12)n(C)c(=O)n3C(C)C#N` (stereo partly drawn) [Compound 149, 2-[1,8-dimethyl-2-oxo-5-[[(1R)-1-[3-(trifluoromethyl)phenyl]ethyl]amino]imidazo[4,5-g]phthalazin-3-yl]propanenitrile]: 0.0102 µM.
The same measure for `Cc1nnc(N[C@H](C)c2cccc(C(F)(F)F)c2)c2cc3[nH]c(=O)n(C)c3cc12` [Compound 145, 1,8-dimethyl-5-[[(1R)-1-[3-(trifluoromethyl)phenyl]ethyl]amino]-3H-imidazo[4,5-g]phthalazin-2-one]: 0.0661 µM; for `Cc1nnc(N[C@H](C)c2cccc(C(F)F)c2F)c2cc3c(cc12)C(C)(C)C(=O)N3C1CC1` [Compound 62, 1-cyclopropyl-3,3,5-trimethyl-8-[[(1R)-1-[3-(difluoromethyl)-2-fluoro-phenyl]ethyl]amino]pyrrolo[2,3-g]phthalazin-2-one]: 0.0107 µM; for `COC1(C)C(=O)N(C)c2cc3c(C)nnc(N[C@H](C)c4cccc(C(F)(F)C(C)(C)O)c4F)c3cc21` (stereo partly drawn) [Compound 179, 3-methoxy-1,3,8-trimethyl-5-[[(1R)-1-[3-(1,1-difluoro-2-hydroxy-2-methyl-propyl)-2-fluoro-phenyl]ethyl]amino]pyrrolo[3,2-g]phthalazin-2-one]: 0.0102 µM.
For `Cc1nnc(N[C@H](C)c2cccc(C(F)(F)CO)c2)c2cc3c(cc12)N(C)C(=O)C3(C)C` [Compound 95, 1,3,3,8-tetramethyl-5-[[(1R)-1-[3-(1,1-difluoro-2-hydroxy-ethyl)phenyl]ethyl]amino]pyrrolo [3,2-g]phthalazin-2-one] the value was 0.00741 µM.
For `COCCn1c(=O)n(C)c2cc3c(C)nnc(N[C@H](C)c4cccc(C(F)(F)F)c4F)c3cc21` [Compound 35, 3-(2-methoxyethyl)-1,8-dimethyl-5-[[(1R)-1-[2-fluoro-3-(trifluoromethyl)phenyl]ethyl]amino] imidazo[4,5-g]phthalazin-2-one], the IC50 was 0.0107 µM.
For `COC1(C)C(=O)N(C)c2cc3c(C)nnc(N[C@H](C)c4cccc(C(F)(F)CO)c4F)c3cc21` (stereo partly drawn) [Compound 176, 3-methoxy-1,3,8-trimethyl-5-[[(1R)-1-[3-(1,1-difluoro-2-hydroxy-ethyl)-2-fluoro-phenyl]ethyl]amino]pyrrolo[3,2-g]phthalazin-2-one] the value was 0.0107 µM.

Values taken from US20250197407A1 (Jazz Pharmaceuticals Ireland Limited, priority 2022, published 2025).
